Consider three compounds from PMC6940354, “Comparative Assessment of the New PDE7 Inhibitor – GRMS-55 and Lisofylline in Animal Models of Immune-Related Disorders: A PK/PD Modeling Approach” (Pharmaceutical Research, 2020).

One data set has as its target T1, hrPDE2A (Homo sapiens, UniProt O00408).
T1 construct: purchased SignalChem, Richmond, Canada
The experiment in a line: PDE-Glo Phosphodiesterase Assay, hrPDE2A. The class given is biochemical. The note with it: cGMP substrate, read-out: IC50 PDE2A, Estimate (CV%).

For another data set, the target named is T2, hrPDE4B (Homo sapiens, UniProt Q07343).
T2 construct: purchased SignalChem, Richmond, Canada
The experiment in a line: PDE-Glo Phosphodiesterase Assay, hrPDE4B. The class given is biochemical. Conditions: for hrPDE4B inhibitory activity, times weaker than rolipram: ratio to the reference compound rolipram.

Data set [1] can be described thus: Pharmacokinetics in female Lewis rats. The class given is in vivo, rat. The note with it: for fraction of the dose absorbed (F): calculated from Eq. 4. The method, then:
The same vehicles as these in pharmacodynamic studies for each compound and route of administration were used. Rats were implanted with catheters into the jugular vein and after a two-day period they were administered with the investigated compounds by the listed above routes of administration. […] Samples were subsequently centrifuged at 3000 × g for 10 min. Plasma was stored at −80°C until analysis.
A detailed description of these methods has been provided in the supplementary materials.
Firstly, the concentration-time data collected for each individual compound from one of the investigated rat strains (Wistar or Lewis) were subjected to a non-compartmental analysis (NCA). Subsequently, pharmacokinetic models were developed for each investigated compound and strain of rat. One- and two- compartment models with linear or non-linear elimination were tested. […] The final models were chosen based on the goodness-of-fit criteria, such as Akaike Information Criterion (AIC), Schwarz Bayesian Criterion (SBC), weighted sum of squared residuals (WSSR), a visual inspection of fitting, and precision of estimated parameters expressed as coefficients of variation % (CVs%). NCA analysis was performed in Phoenix WinNonlin v. 7.0 (Pharsight Corp., a Certara Company, Princeton, New Jersey). Pharmacokinetic model parameters were estimated in ADAPT 5 software (BMSR, Los Angeles, CA) using the weighted least squares algorithm. Fraction of the dose absorbed (F) following an extravascular (EV) administration was calculated according to the Eq. 4:4 F=AUC0−tEV·DIV/AUC0−tIV·DEV where AUC0-t is the area under concentration versus time curve from 0 to the last measured point and D is dose.
The route of (±)-LSF administration was selected based on the results of our recent study, where SC route of administration was recognized as the most preferential for this compound ([20]). The concentration-time data for each of the investigated compounds were simultaneously fitted to obtain a single set of pharmacokinetic parameters.
The remaining symbols and parameters have been explained and defined in Fig. 2 and Table II.
Then, the samples were extracted with 1 mL of dichloromethane for 20 min using a VXR Vibrax shaker (IKA, Germany). Subsequently, all tubes were centrifuged (10 000×g, 8 min) using EBA 12 R centrifuge (Hettich, Germany). Organic layers were collected and transferred to clear propylene tubes and evaporated in water bath under a gentle stream of nitrogen at 37°C. Dry residues were then dissolved in 100 μL of mobile phase and subjected to the HPLC analysis. The HPLC system (LaChrom Elite, Merck-Hitachi, Germany) consisted of an L-2130 pump, an L-2200 autosampler, and an L-2420 UV-VIS detector. EZChrome Elite v. 3.2 (Merck-Hitachi, Germany) computer program was used for data acquisition and integration. The separation of GRMS-55 was performed using a LiChrospher 100 RP-18 (250×4 mm) column with a particle size of 5 μm protected with a LiChroCART (4×4 mm, RP-18) guard column (Merck, Germany). […] The separation of both investigated compounds was performed at ambient temperature. […] In turn, the retention time of GRMS-55 was 9.2 min. and that of its IS was 5.3 min.

Data set [2] relates to collagen-induced arthritis (CIA) in female Lewis rats. The experiment in a line: Body weight, clinical score and paw areas in CIA rats. The note with it: CIA rats vs control group; rolipram at all assessments post 20th day, (±)-LSF at 26, 33, and 36 day. The class given is in vivo, rat. The method, then: At a day 0 of the experiment animals were subcutaneously (SC) injected at the base of the tail with 200 μL of the emulsion using a 27 gauge × 5/8″ needle and Hamilton syringe. At day 7 after the initial immunization, a booster injection with 100 μL of emulsion was performed. Ninety % of rats developed symptoms of disease (paw swelling >150% of day 0) at day 20 of the experiment. At this day, diseased animals were randomly divided into five groups (n = 6). […] One investigated group received (±)-LSF dissolved in saline at an SC dose of 80 mg kg^−1 once daily. The corresponding control groups were administered with appropriate volumes of vehicles IP or SC. At day 40 animals were sacrificed. Hind paws of rats were taken and immersed into 4% buffered formalin solution for a subsequent histological analysis. Blood samples were collected and allowed to clot for 20 min and then centrifuged at 2000 x g for 15 min. Serum samples were collected and frozen at -80°C.
Body weight and paw size were measured, and clinical score was assessed at days 0, 5, 7, 11, 15, 18, 20, 22, 26, 30, 33, and 36 after the first immunization. Body weight of each rat was normalized to the body weight of the same rat at the day of the first immunization. Disease progression was evaluated by a qualitative clinical score (CS) as described elsewhere (1), where 0 – no symptoms of the disease, such as redness or swelling, 1 – mild, but definite redness and swelling, 2 – moderate redness and swelling, 3 – severe redness and swelling, and 4 – maximally inflamed limbs.

Where [3] appears, read: rat, plasma, other: GRMS-55 IV and IP, rolipram IP, female Lewis rats, read-out: half-life calculated as ln2·V1/Clt (elimination half-life).

Each structure is given as a SMILES string. Several values for one entry are separate records, joined by “and”; a condition that tells them apart may be missing. Equal entries are not always repeated. Where two headings read alike, the source gives them in different places.

T2 sequence (Q07343 whole entry): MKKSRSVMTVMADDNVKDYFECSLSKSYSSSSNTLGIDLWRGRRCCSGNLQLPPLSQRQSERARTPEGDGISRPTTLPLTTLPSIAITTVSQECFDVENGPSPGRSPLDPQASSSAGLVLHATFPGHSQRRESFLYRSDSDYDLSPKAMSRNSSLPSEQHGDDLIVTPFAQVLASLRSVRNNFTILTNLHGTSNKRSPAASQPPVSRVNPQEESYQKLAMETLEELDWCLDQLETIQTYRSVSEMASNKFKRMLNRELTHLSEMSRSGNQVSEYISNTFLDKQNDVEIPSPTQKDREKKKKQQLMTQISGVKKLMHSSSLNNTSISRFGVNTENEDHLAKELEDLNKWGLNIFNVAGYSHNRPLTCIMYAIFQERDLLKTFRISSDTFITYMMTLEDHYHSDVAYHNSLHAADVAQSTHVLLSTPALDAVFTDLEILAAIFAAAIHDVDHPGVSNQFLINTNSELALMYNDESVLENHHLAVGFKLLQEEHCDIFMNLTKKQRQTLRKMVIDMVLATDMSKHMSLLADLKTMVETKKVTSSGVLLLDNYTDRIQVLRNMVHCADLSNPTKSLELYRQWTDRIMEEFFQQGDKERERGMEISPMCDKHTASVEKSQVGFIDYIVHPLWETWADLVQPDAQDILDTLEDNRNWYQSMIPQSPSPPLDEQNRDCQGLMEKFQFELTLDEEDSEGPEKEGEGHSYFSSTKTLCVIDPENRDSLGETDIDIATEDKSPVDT
T1 sequence (O00408 whole entry): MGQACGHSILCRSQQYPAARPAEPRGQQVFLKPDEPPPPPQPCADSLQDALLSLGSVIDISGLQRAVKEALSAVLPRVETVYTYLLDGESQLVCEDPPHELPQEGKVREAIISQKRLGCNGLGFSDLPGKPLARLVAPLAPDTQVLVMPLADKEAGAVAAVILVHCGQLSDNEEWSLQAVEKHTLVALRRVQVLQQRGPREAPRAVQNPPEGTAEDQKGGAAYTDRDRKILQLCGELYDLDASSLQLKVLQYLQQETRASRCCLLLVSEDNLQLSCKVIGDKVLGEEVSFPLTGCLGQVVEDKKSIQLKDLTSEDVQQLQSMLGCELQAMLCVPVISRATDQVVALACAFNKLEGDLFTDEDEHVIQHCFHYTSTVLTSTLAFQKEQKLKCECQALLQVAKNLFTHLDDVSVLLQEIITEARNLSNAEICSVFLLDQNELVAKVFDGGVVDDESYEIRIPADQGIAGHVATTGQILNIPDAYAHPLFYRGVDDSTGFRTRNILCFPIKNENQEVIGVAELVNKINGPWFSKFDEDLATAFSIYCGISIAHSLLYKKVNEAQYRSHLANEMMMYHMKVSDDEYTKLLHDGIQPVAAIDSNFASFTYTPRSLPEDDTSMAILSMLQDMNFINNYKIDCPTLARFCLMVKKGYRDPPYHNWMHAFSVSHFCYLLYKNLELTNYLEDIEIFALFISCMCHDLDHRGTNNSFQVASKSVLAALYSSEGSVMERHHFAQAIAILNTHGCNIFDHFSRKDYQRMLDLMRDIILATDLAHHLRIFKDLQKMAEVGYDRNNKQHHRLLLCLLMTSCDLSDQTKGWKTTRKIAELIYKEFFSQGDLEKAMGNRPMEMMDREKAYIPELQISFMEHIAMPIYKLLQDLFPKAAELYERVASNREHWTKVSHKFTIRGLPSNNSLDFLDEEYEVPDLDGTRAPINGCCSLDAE
Method for hrPDE2A: (§1) Inhibitory activity of the investigated and reference compounds against various subtypes of PDEs was analyzed using the PDE-Glo Phosphodiesterase Assay following the manufacturer’s instruction (Promega Corp., USA). […] The values of IC50, Imax, and γ parameters of the investigated and reference compounds were estimated using non-linear regression in Phoenix WinNonlin v. […] Each sample was performed in quadruplicate and the relative activity of each sample was calculated as E=sample activity/control activity·100% .
One and a half μL aliquots of PDE-Glo reaction buffer containing appropriate amounts of human recombinant PDE (hrPDE) 1B, 2A, 3A, 4B, 4D, 5A, 7A, or 10A (SignalChem, Richmond, Canada) were placed into separate wells of a 384-well plate (Thermo Scientific, USA). The investigated compounds were initially dissolved in DMSO and then a serial dilution with DMSO was performed. Each dilution was mixed with PDE-Glo reaction buffer at a ratio of 1:5 (v/v). Then, 1 μL of the solution containing a PDE inhibitor and 2.5 μL of the substrate solution were added to each well. cGMP was used as a substrate in the case of hrPDE2A and hrPDE5A, while cAMP for other types of hrPDEs. The samples were incubated for 10 min at 30°C. […] The luminescence of each sample was measured by a microplate reader POLARstar Omega (BMG LABTECH, Germany).
Method for hrPDE4B: as §1
One and a half μL aliquots of PDE-Glo reaction buffer containing appropriate amounts of human recombinant PDE (hrPDE) 1B, 2A, 3A, 4B, 4D, 5A, 7A, or 10A (SignalChem, Richmond, Canada) were placed into separate wells of a 384-well plate (Thermo Scientific, USA). The investigated compounds were initially dissolved in DMSO and then a serial dilution with DMSO was performed. Each dilution was mixed with PDE-Glo reaction buffer at a ratio of 1:5 (v/v). Then, 1 μL of the solution containing a PDE inhibitor and 2.5 μL of the substrate solution were added to each well. cGMP was used as a substrate in the case of hrPDE2A and hrPDE5A, while cAMP for other types of hrPDEs. The samples were incubated for 10 min at 30°C. Subsequently, 2.5 μL volumes of PDE-Glo Termination Buffer and PDE-Glo Detection Solution were added to each well and after 20 min of incubation at room temperature, 10 μL of Kinase-Glo Reagent was added to each well. The luminescence of each sample was measured by a microplate reader POLARstar Omega (BMG LABTECH, Germany).

A word on the IC50: it is the midpoint of a concentration-inhibition curve. On to `CC(O)CCCCn1c(=O)c2c(ncn2C)n(C)c1=O` (racemic) [(±)-LSF, lisofylline], for which the IC50 on hrPDE2A was 91.6 µM; at hrPDE4B (hrPDE4B, cAMP substrate, read-out: IC50 PDE4B, Estimate (CV%)), 50.8 µM. Further, at hrPDE4B, the “hrPDE4B inhibitory activity, times weaker than rolipram” value is 45 times. The “fraction of the dose absorbed (F)” value in data set [1] (female Lewis rats, SC administration) was 95%. The “volume of distribution, times lower in female Lewis rats compared to male Wistar rats” value in data set [1] (female Lewis vs male Wistar rats) is on record as 3.3 times. Moreover, the half-life in data set [1] (rat, plasma, 80 mg kg^-1, female Lewis rats, SC administration, flip-flop pharmacokinetics, read-out: plasma terminal half-life) stood at 23 min. In data set [1] (rat, plasma, other: IV and SC, female Lewis rats, (±)-LSF IV 40 and SC 80 mg kg^−1, read-out: VLSF, volume of distribution of (±)-LSF, Estimate (CV%)), the Vd is 0.37 L/kg. Moreover, the k el in data set [1] (rat, plasma, other: IV and SC, female Lewis rats, (±)-LSF IV and SC, read-out: kd, overall parent elimination rate constant, Estimate (CV%) (converted)) was 0.00353 s⁻¹. Further, the “clinical score values (result in words)” value in data set [2] was “significantly lower”.
Turning to `Cn1c(=O)c2c(nc(NCCc3ccccc3)n2CCCC(=O)NN=Cc2ccccc2O)n(C)c1=O` [GRMS-55, 4-(1,3-Dimethyl-2,6-dioxo-8-(phenethylamino)-2,3,6,7-tetrahydro-1H-purin-7-yl)-N′-(2-hydroxybenzylidene)butanehydrazide], the IC50 on hrPDE2A was more than 100 µM. Further, the “PDE4B inhibitory potency of GRMS-55 relative to (±)-LSF” value on hrPDE4B (GRMS-55 more potent than (±)-LSF in vitro) is ~ 2 times and ~ 2.0 times. Further, the “hrPDE4B inhibitory activity, times weaker than rolipram” value on hrPDE4B is reported as 24 times. Moreover, the “fraction of the dose absorbed (F)” value in data set [1] (female Lewis rats, IP administration) is on record as 23%. Moreover, the half-life in data set [1] (setting [3]) was 21 min. Besides, the “clinical score values (result in words)” value in data set [2] is recorded as “did not decreased significantly”.
For `COc1ccc(C2CNC(=O)C2)cc1OC1CCCC1` (stereo not drawn) [Rolipram, rolipram], the Vd/F in data set [1] (female, Lewis, rat, plasma, ip, 10 mg/kg, read-out: V(ROL)/F, volume of distribution divided by fraction absorbed, Estimate (CV%)) is 1.02 L/kg. Moreover, the half-life in data set [1] (setting [3]) is 30 min. Further, the “clinical score values (result in words)” value in data set [2] is on record as “significantly lower”.
